Laboratory results from patent publication US20240100062A1, “Methods of Treatment With an Iboga Alkaloid” (priority 2022, published 2024).
Values joined by “and” are separate entries in the source; they are usually repeats but may differ in a detail not shown here. Equal entries are not always repeated. “Also recorded” adds a separate entry of the source.

Key:
[1] = system: special operations veterans; experiment: Hamilton Anxiety Rating Scale (HAM-A), Example 1 study; assay type: in vivo, human; conditions: for HAM-A score, mean: p(FDR) <0.001
Description: (§1) With subjects in the fasting state, an intravenous infusion of 1 gram of magnesium sulfate was administered 1-2 hours prior to treatment. […] Medical staff (MD, RN, or EMT) were onsite at a ratio of at least 1 staff per 2 patients throughout treatment for monitoring and management, but no specific coaching or psychological support was provided during treatment.
(§2) Post treatment, each subject was assessed four days after treatment, one month after treatment, and, if willing, one year after treatment. The post-treatment assessments conducted at four days and at one month after treatment included neuropsychological testing, measures of PTSD, depression, anxiety, mystical experiences, functional imaging and EEG. Post-treatment assessments conducted at one year after treatment included PTSD, depression, and anxiety measures.
(§3) Clinician administered scales included CAPS-5 (Clinician-administered PTSD Scale for DSM-5), which is a gold standard assessment of PTSD symptom severity; MADRS (Montgomery-Asberg Depression Rating Scale), a measure for depressive symptom severity; and Hamilton-Anxiety Rating Scale (HAM-A) (Shear, M. K. et al., Depress. Anxiety 13, 166-178 (2001)) a measure for anxiety symptom severity; SCID-5 (Structured Clinical Interview for DSM-5) Overview for a historical and environmental context of symptom presentation; MINI DSM-5 (Mini International Neuropsychiatric Interview from DSM-5) for a structured psychodiagnostics assessment; BAT-L (Boston Assessment of TBI—Lifetime) for a lifetime history of TBI and blast exposure; and Ohio State University TBI Identification Method (Short Form) for a lifetime history of TBI. MADRS testing provides an indication of depressive symptoms, CAPS-5 provides an indication of PTSD and SIGH-A provides an indication of anxiety. Collectively these overlap to provide indication of mood, concentration, sleep and tension.
To assess anxiety symptoms, the Hamilton Anxiety Rating Scale was used. This scale includes 14-items assessing both psychic and physical symptoms of anxiety. Items are rated on a scale from 0 (no symptoms) to 4 (severe symptoms). Total score ranges were: no or minimal anxiety (≤7), mild (8-14), moderate (15-23), and severe anxiety symptoms (≥24) (Matza et al., Int. J Methods Psychiatr. Res. 19, 223-232 (2010)).

humans = conditions: in vivo; cited from earlier work
[2] = system: special operations veterans; experiment: Safety monitoring (adverse events, QTc by ECG), Example 1 study; assay type: in vivo, human
Description: as §1

cortical neuron = conditions: in vitro; cited from earlier work
[3] = system: special operations veterans; experiment: MADRS depression rating scale, Example 1 study; assay type: in vivo, human; conditions: for MADRS score, mean: p(FDR) <0.001
Description: as §1, §2, §3
The MADRS is a clinician—administered 10-item scale assessing the severity of depression symptoms. Items are rated on a scale of 0 (no abnormality) to 6 (severe) (Montgomery, S. A. et al., Br. J. Psychiatry J. Ment. Sci. 134, 382-389 (1979)). A total score of 0-6 indicates no depression, 7-19 mild depression, 20-34 moderate depression, 35-59 severe depression, […] (Miller, M. J., J. Affect. Disord. 77, 255-260 (2003)).

[4] = system: N-methyl-D-aspartate, kappa and mu opioid, sigma-1 and -2, nicotinic acetylcholine, serotonin transporter, and dopamine transporter; conditions: cited from earlier work
[5] = system: special operations veterans; design: species or system human; conditions: in vivo
[6] = system: special operations veterans; experiment: Neuropsychological battery overall, Example 1 study; assay type: in vivo, human; conditions: post treatment time points
From the text: A summary of the results is in Table 1 and Table 1-6 of Example 1. […] In Table 1, neuropsychological test scores are represented as a T score (mean of 50, SD of 10). Unless stated otherwise, a higher score represents better performance.
Neuropsychological testing of the enrolled subjects was designed to examine abilities over several domains of cognitive functioning, including estimated intelligence quotient (IQ), verbal fluency, working memory (visual and auditory), long term memory (visual and auditory), processing speed, sustained attention, problem solving, ability to perceive patterns, executive functioning, such as ability to hold and manipulate or update information in the head, inhibition, ability to organize, plan, and develop solutions to problems. In addition, assessments examining cognitive abilities over several domains of functioning were done to evaluate the safety of ibogaine use. […]

[7] = system: special operations veterans; experiment: Delis-Kaplan Executive Function System (D-KEFS), Example 1 study; assay type: in vivo, human

SMILES: CCC1CC2CC3c4[nH]c5ccc(OC)cc5c4CCN(C2)C13 (centres unmarked) [ibogaine, Ibogaine]
- HAM-A score, mean ([1]; 1-mo. post, SD 4.6, baseline 20.7 ± 8.6, N 28, only participants with mild TBI): 3.7
- HAM-A score, mean ([1]; 1-mo. post, SD 6.3, baseline 23.8 ± 7.6, N 14, only participants meeting diagnostic criteria per MINI at baseline): 5.1
- HAM-A % Reduction vs Baseline, mean ([1]; 1-mo. post, SD 21%, only participants with mild TBI): 82% ±
- HAM-A % Reduction vs Baseline, mean ([1]; 1-mo. post, SD 23%, only participants meeting diagnostic criteria per MINI): 80% ±
- HAM-A score, mean ([1]; 1-wk post, SD 3.4, baseline 23.8 ± 7.6, N 14, only participants meeting diagnostic criteria per MINI at baseline): 4.2
- HAM-A score, mean ([1]; 1-wk. post, SD 3.3, baseline 20.7 ± 8.6, N 28, only participants with mild TBI): 3.3
- HAM-A % Reduction vs Baseline, mean ([1]; 1-wk. post, SD 14%, only participants meeting diagnostic criteria per MINI): 82% ±
- HAM-A % Reduction vs Baseline, mean ([1]; 1-wk. post, SD 19%, only participants with mild TBI): 82% ±
- Incidence of cardiac arrest in people treated (humans): Approximately 1 in 300 people
- Neurotoxicity reported in humans (humans): only transient ataxia has been reported in humans
- QT interval prolongation (humans): instances of subsequent fatal arrhythmia
- Participants treated for insomnia ([2]; 1 participant, during oneirogenic effects): 3%
- Participants treated for hypertension ([2]; 2 participants, during oneirogenic effects): 7%
- Participants treated for anxiety ([2]; 3 participants, during oneirogenic effects): 10%
- Participants treated for nausea ([2]; 7 participants, during oneirogenic effects): 23%
- Participants treated for headache ([2]; 12 participants, during oneirogenic effects): 40%
- Transient cerebellar signs such as mild ataxia and intention tremor ([2]; 30 participants): All participants experienced transient cerebellar signs
- Unexpected or serious adverse events ([2]; 30 participants, 12.1±1.2 mg/kg oral ibogaine with IV magnesium sulfate, 1.2 mg/kg): no unexpected or serious treatment-emergent side effects; also recorded: no unexpected or serious adverse events
- QTc prolongation ([2]; continuous 5-lead ECG 12-16 hours after ibogaine): no instances of a concerning prolongation of QTc
- Cortical neuron dendritic arbor complexity (cortical neuron): increases cortical neuron dendritic arbor complexity
- MADRS score, mean ([3]; 1-mo. post, SD 5.9, baseline 25.2 ± 8.7, N 28, only participants with mild TBI): 3.6
- MADRS score, mean ([3]; 1-mo. post, SD 7.7, baseline 31.3 ± 6.5, N 15, only participants meeting diagnostic criteria per MINI at baseline): 6.4
- MADRS % Reduction vs Baseline, mean ([3]; 1-mo. post, SD 17%, only participants with mild TBI): 87% ±
- MADRS % Reduction vs Baseline, mean ([3]; 1-mo. post, SD 21%, only participants meeting diagnostic criteria per MINI): 81% ±
- MADRS score, mean ([3]; 1-wk post, SD 3.6, baseline 31.3 ± 6.5, N 15, only participants meeting diagnostic criteria per MINI at baseline): 3.6
- MADRS score, mean ([3]; 1-wk. post, SD 3.2, baseline 25.2 ± 8.7, N 28, only participants with mild TBI): 2.7
- MADRS % Reduction vs Baseline, mean ([3]; 1-wk. post, SD 11%, only participants meeting diagnostic criteria per MINI): 89% ±
- MADRS % Reduction vs Baseline, mean ([3]; 1-wk. post, SD 24%, only participants with mild TBI): 87% ±
- MADRS, D ([3]; Baseline vs 1-mo. post, only participants with mild TBI): 2.70
- Affinity for neurotransmitter receptors [4]: moderate-to-weak affinity
- Detection (CPT-3 Detection), D [5]: 0.86
- Reaction Time (CPT-3 Reaction Time), D [5]: 0.52 and 0.29
- Reaction Time (CPT-3 Reaction Time), mean ± SD [5]: 44.1 ± 6.8 T score and 46.4 ± 8.1 T score
- Slowing of reaction time, D [5]: 0.29-0.52
- Sustained Attention (CPT-3 Hit Reaction Time Block Change), mean ± SD [5]: 50.8 ± 7.9 T score and 51.2 ± 7.7 T score
- Declines across performance domains [6]: No declines were noted across any performance domain
- Phonemic Fluency (D-KEFS Verbal Fluency), mean ± SD ([7]; 1-mo. post, baseline 57.0 ± 11.7, p(FDR) <0.001): 64.0 ± 10.1 T score
- Cognitive Flexibility Composite, D ([7]; baseline vs 1-month post): 0.74
- Cognitive Inhibition (D-KEFS Color/Word Interference, Condition 3), D ([7]; baseline vs 1-month post): 0.62
- Phonemic Fluency (D-KEFS Verbal Fluency), D ([7]; baseline vs 1-month post): 1.11
- Problem Solving (D-KEFS TT, Total Achievement Score), D ([7]; baseline vs 1-month post): 0.44
- Semantic Fluency (D-KEFS Verbal Fluency), D ([7]; baseline vs 1-month post): 0.24
- Cognitive Flexibility Composite, D ([7]; baseline vs 1-wk post): 0.43
- Phonemic Fluency (D-KEFS Verbal Fluency), D ([7]; baseline vs 1-wk post): 0.52
- Problem Solving (D-KEFS TT, Total Achievement Score), D ([7]; baseline vs 1-wk post): 0.49
- Semantic Fluency (D-KEFS Verbal Fluency), D ([7]; baseline vs 1-wk post): 0.02
- Language (semantic fluency) performance change ([7]; post treatment time points): No significant performance changes
